Measurements reported in the NIST ThermoML archive (doi:10.1016/j.jct.2018.02.010).
± gives the expanded uncertainty stated by the source.

Columns and labels:
[1] = 298.15 K; for surface tension liquid-gas: Maximal bubble pressure; for mass density: 101.33 kPa, Liquid, Vibrating tube method
[2] = refractive index (Na D-line) (dimensionless); settings: 298.15 K; 101.33 kPa; Liquid; refractometer model RFM 81
[3] = 101.3 kPa, Liquid mixture 1, spinning drop method

Row | Compound | surface tension liquid-gas [1] | mass density [1] | refractive index [2] | interfacial tension ([3]; 278.15 K) | interfacial tension ([3]; 288.15 K) | interfacial tension ([3]; 298.15 K) | interfacial tension ([3]; 308.15 K) | interfacial tension ([3]; 318.15 K) | interfacial tension ([3]; 328.15 K) | interfacial tension ([3]; 338.15 K) | interfacial tension ([3]; 348.15 K) | interfacial tension ([3]; 358.15 K)
1 | COC(C)=O [methyl ethanoate] | 24.93 ± 0.25 mN/m | 926.9 ± 0.72 kg/m3 | 1.36008 ± 0.0008 |  |  |  |  |  |  |  |  | 
2 | COC(C)=O [methyl ethanoate] + O |  |  |  | 1.86 ± 0.03 mN/m | 1.77 ± 0.03 mN/m | 1.66 ± 0.03 mN/m | 1.49 ± 0.03 mN/m | 1.17 ± 0.03 mN/m | 0.75 ± 0.03 mN/m |  |  | 
3 | COC=O [methyl methanoate] | 24.96 ± 0.25 mN/m | 960.85 ± 0.3 kg/m3 | 1.34174 ± 0.0008 |  |  |  |  |  |  |  |  | 
4 | COC=O [methyl methanoate] + O |  |  |  | 0.56 ± 0.03 mN/m | 0.77 ± 0.03 mN/m |  |  |  |  |  |  | 
5 | CCC(=O)OC [methyl propanoate] | 24.61 ± 0.25 mN/m | 909.3 ± 0.72 kg/m3 | 1.37572 ± 0.0008 |  |  |  |  |  |  |  |  | 
6 | CCC(=O)OC [methyl propanoate] + O |  |  |  | 7.02 ± 0.03 mN/m | 7.55 ± 0.03 mN/m | 7.69 ± 0.03 mN/m | 7.56 ± 0.03 mN/m | 7.34 ± 0.03 mN/m | 6.63 ± 0.03 mN/m | 5.06 ± 0.03 mN/m |  | 

Continued, values first:

Row | surface tension liquid-gas [1] | mass density [1] | refractive index [2] | interfacial tension ([3]; 278.15 K) | interfacial tension ([3]; 288.15 K) | interfacial tension ([3]; 298.15 K) | interfacial tension ([3]; 308.15 K) | interfacial tension ([3]; 318.15 K) | interfacial tension ([3]; 328.15 K) | interfacial tension ([3]; 338.15 K) | interfacial tension ([3]; 348.15 K) | interfacial tension ([3]; 358.15 K) | Compound
7 | 24.56 ± 0.25 mN/m | 892.62 ± 0.72 kg/m3 | 1.38486 ± 0.0008 |  |  |  |  |  |  |  |  |  | CCCC(=O)OC [methyl butanoate]
8 |  |  |  | 10.6 ± 0.03 mN/m | 10.9 ± 0.03 mN/m | 11.1 ± 0.03 mN/m | 11.1 ± 0.03 mN/m | 11 ± 0.03 mN/m | 10.6 ± 0.03 mN/m | 10.05 ± 0.03 mN/m | 9.4 ± 0.03 mN/m |  | CCCC(=O)OC [methyl butanoate] + O
9 | 26.73 ± 0.26 mN/m | 875.61 ± 0.72 kg/m3 | 1.41086 ± 0.0008 |  |  |  |  |  |  |  |  |  | CCCCCCC(=O)OC [methyl heptanoate]
10 |  |  |  |  | 16 ± 0.03 mN/m | 16.7 ± 0.03 mN/m | 17.3 ± 0.04 mN/m | 17.5 ± 0.04 mN/m | 17.6 ± 0.04 mN/m | 17.5 ± 0.04 mN/m | 16.9 ± 0.03 mN/m | 15.9 ± 0.03 mN/m | CCCCCCC(=O)OC [methyl heptanoate] + O
11 | 26.01 ± 0.26 mN/m | 879.76 ± 0.72 kg/m3 | 1.40443 ± 0.0008 |  |  |  |  |  |  |  |  |  | CCCCCC(=O)OC [methyl hexanoate]
12 |  |  |  | 14.6 ± 0.03 mN/m | 15 ± 0.03 mN/m | 15.5 ± 0.03 mN/m | 15.7 ± 0.03 mN/m | 15.8 ± 0.03 mN/m | 15.7 ± 0.03 mN/m | 15.5 ± 0.03 mN/m | 15.1 ± 0.03 mN/m | 14.6 ± 0.03 mN/m | CCCCCC(=O)OC [methyl hexanoate] + O
13 | 25.34 ± 0.25 mN/m | 885.66 ± 0.72 kg/m3 | 1.39628 ± 0.0008 |  |  |  |  |  |  |  |  |  | CCCCC(=O)OC [methyl pentanoate]
14 |  |  |  | 13.6 ± 0.03 mN/m | 14 ± 0.03 mN/m | 14.1 ± 0.03 mN/m | 14 ± 0.03 mN/m | 13.9 ± 0.03 mN/m | 13.7 ± 0.03 mN/m | 13.5 ± 0.03 mN/m | 13.2 ± 0.03 mN/m | 12.9 ± 0.03 mN/m | CCCCC(=O)OC [methyl pentanoate] + O
